According to patent publication US4131620A, “Sulfamic acid halides and their manufacture” (BASF Aktiengesellschaft, priority 1976, dated 1978):

Key:
Glycine max = assay: herbicidal action, post-emergence method, in a greenhouse; type: in vivo, Glycine max (soy beans); conditions: Glyc. max, 0 = no damage, 100 = complete destruction
Protocol: (§1) A range of crop plants and of unwanted plants are treated in a greenhouse. The test plants, segregated according to species, are grown in plastic pots. When they have grown to from 2 to 15 cm, depending on the age and the habit of the species, emulsions of the end product I prepared in Example 10 are applied to the leaves by means of jets which produce a fine spray (post-emergence treatment). Water (300 liters per hectare) serves as the vehicle and dispersing medium. […] The results are rated on a scale of from 0 to 100, with O = no damage and 100 = complete destruction.

Sida spinosa = assay: as above; type: in vivo, Sida spinosa (teaweed (pricly sida)); conditions: Sida spin., 0 = no damage, 100 = complete destruction
Protocol: (§2) A range of crop plants and of unwanted plants are treated in a greenhouse. The test plants, segregated according to species, are grown in plastic pots. […] Water (300 liters per hectare) serves as the vehicle and dispersing medium. […] The results are rated on a scale of from 0 to 100, with O = no damage and 100 = complete destruction.

Sesbania exaltata = assay: as above; type: in vivo, Sesbania exaltata (hemp sesbania (coffeeweed)); conditions: Sesb. exalt., 0 = no damage, 100 = complete destruction
Protocol: as §1

unwanted plants = assay: herbicidal action, post-emergence treatment in a greenhouse, unwanted plants; type: in vivo
Protocol: as §1

Cyperus esculentus = assay: herbicidal action, post-emergence method, in a greenhouse; type: in vivo, Cyperus esculentus (yellow nutsedge); conditions: Cyp. esc., 0 = no damage, 100 = complete destruction
Protocol: as §2

Ipomoea spp. = assay: as above; type: in vivo, Ipomoea spp. (morning glory); conditions: Ipom. spp., 0 = no damage, 100 = complete destruction
Protocol: as §2

Ludwigia spp. = assay: as above; type: in vivo; conditions: Ludw. spp., 0 = no damage, 100 = complete destruction
Protocol: as §2

Amaranthus retroflexus = assay: as above; type: in vivo, Amaranthus retroflexus (pigweed); conditions: Amar. retr., 0 = no damage, 100 = complete destruction
Protocol: as §2

Ammannia coccinea = assay: as above; type: in vivo, Ammannia coccinea (redstem); conditions: Amm. cocc., 0 = no damage, 100 = complete destruction
Protocol: as §1

Oryza sativa = assay: as above; type: in vivo, Oryza sativa (rice); conditions: Oryz. sat., 0 = no damage, 100 = complete destruction
Protocol: as §2

Sinapis alba = assay: as above; type: in vivo, Sinapis alba (white mustard); conditions: Sin. alba, 3 kg/ha of active ingredient (footnote +), 0 = no damage, 100 = complete destruction
Protocol: as §1

Avena sativa = assay: as above; type: in vivo, Avena sativa (oats); conditions: Avena sat., 3 kg/ha of active ingredient (footnote +), 0 = no damage, 100 = complete destruction
Protocol: as §1

crop plants = assay: herbicidal action, post-emergence treatment in a greenhouse, crop plants; type: in vivo; conditions: after one week
Protocol: as §1

Structure (SMILES): CCN(COC)S(=O)(=O)N1c2ccccc2C(=O)N(C(C)C)S1(=O)=O [Example 10, 3-isopropyl-1-N'-methoxymethyl-N'-ethylsulfamoyl-2,1,3-benzothiadiazin-4-one-2,2-dioxide]
- % damage (Glycine max; 2.0 kg/ha of active ingredient): 5%
- % damage (Glycine max; 4.0 kg/ha of active ingredient): 15%
- % damage (Sida spinosa; 2.0 kg/ha of active ingredient): 95%
- % damage (Sida spinosa; 4.0 kg/ha of active ingredient): 95%
- % damage (Sesbania exaltata; 2.0 kg/ha of active ingredient): 50%
- % damage (Sesbania exaltata; 4.0 kg/ha of active ingredient): 60%
- onset of action (in words) (unwanted plants): The action sets in rapidly
- damage to unwanted plants (in words) (unwanted plants; after one week): dying
- % damage (Cyperus esculentus; 2.0 kg/ha of active ingredient): 60%
- % damage (Cyperus esculentus; 4.0 kg/ha of active ingredient): 70%
- % damage (Ipomoea spp.; 2.0 kg/ha of active ingredient): 50%
- % damage (Ipomoea spp.; 4.0 kg/ha of active ingredient): 90%
- % damage (Ludwigia spp.; 2.0 kg/ha of active ingredient): 50%
- % damage (Ludwigia spp.; 4.0 kg/ha of active ingredient): 75%
- % damage (Amaranthus retroflexus; 2.0 kg/ha of active ingredient): 60%
- % damage (Amaranthus retroflexus; 4.0 kg/ha of active ingredient): 60%
- % damage (Ammannia coccinea; 2.0 kg/ha of active ingredient): 50%
- % damage (Ammannia coccinea; 4.0 kg/ha of active ingredient): 60%
- % damage (Oryza sativa; 2.0 kg/ha of active ingredient): 0%
- % damage (Oryza sativa; 4.0 kg/ha of active ingredient): 0%
- % damage (Sinapis alba): 100%
- % damage (Avena sativa): 0%
- damage to crop plants (in words) (crop plants): very little or no attach
